Experiments:
[1] = tested on: NCI-H226; assay: Anticancer activity against human NCI-H226 cells assessed as cell growth at 0.1 uM incubated for 48 hrs by SRB assay; assay type: functional; conditions: read-out: Activity
[2] = target: T1, Cytochrome P450 1A1 (Homo sapiens, UniProt P04798); assay: Inhibition of recombinant CYP1A1 (unknown origin) assessed as decrease in EROD activity using 7-ethoxyresorufin as substrate incubated for 15 mins by resorufin dye based spectrofluorimetry; assay type: ADME
T1 sequence (P04798 whole entry): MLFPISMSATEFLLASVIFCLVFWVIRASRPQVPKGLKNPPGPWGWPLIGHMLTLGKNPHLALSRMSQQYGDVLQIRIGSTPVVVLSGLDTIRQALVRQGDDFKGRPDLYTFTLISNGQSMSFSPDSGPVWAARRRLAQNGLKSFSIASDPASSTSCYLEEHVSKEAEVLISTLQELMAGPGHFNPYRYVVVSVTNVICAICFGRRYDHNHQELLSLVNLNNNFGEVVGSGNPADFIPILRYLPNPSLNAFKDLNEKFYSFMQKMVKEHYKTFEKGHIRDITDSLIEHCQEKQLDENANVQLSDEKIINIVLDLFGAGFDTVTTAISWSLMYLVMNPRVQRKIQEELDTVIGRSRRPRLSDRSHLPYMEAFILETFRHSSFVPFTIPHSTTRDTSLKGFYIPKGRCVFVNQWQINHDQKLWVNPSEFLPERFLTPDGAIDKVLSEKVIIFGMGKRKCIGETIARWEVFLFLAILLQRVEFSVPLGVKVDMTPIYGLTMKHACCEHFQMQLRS

[3] = tested on: NCI-H226; assay: Anticancer activity against human NCI-H226 cells assessed as cell growth at 100 uM incubated for 48 hrs by SRB assay; assay type: functional; conditions: read-out: Activity
[4] = tested on: MDA-MB-435; assay: Anticancer activity against human MDA-MB-435 cells assessed as cell growth at 10 uM incubated for 48 hrs by SRB assay; assay type: functional; conditions: read-out: Activity
[5] = tested on: MCF7; assay: Anticancer activity against human MCF7 cells assessed as cell growth at 0.1 uM incubated for 48 hrs by SRB assay; assay type: functional; conditions: read-out: Activity
[6] = target: T2, CYP1A1 (Homo sapiens, UniProt P04798); assay: Inhibition of recombinant CYP1A1 (unknown origin) assessed as residual enzyme activity using 7-ethoxyresorufin as substrate at 5 uM incubated for 15 mins by resorufin dye based spectrofluorimetry (reference value: 100%); assay type: ADME; conditions: recombinant CYP1A1, probe 7-ethoxyresorufin, read-out: Activity
T2 sequence (P04798 whole entry): T1 sequence (P04798 whole entry)

[7] = tested on: NCI-H226; assay: Anticancer activity against human NCI-H226 cells assessed as cell growth at 10 uM incubated for 48 hrs by SRB assay; assay type: functional; conditions: read-out: Activity
[8] = tested on: MCF7; assay: Anticancer activity against human MCF7 cells assessed as inhibition of cell growth incubated for 48 hrs by SRB assay; assay type: functional; conditions: for CC50: read-out: LC50 (the source's name)
[9] = tested on: MDA-MB-435; assay: Anticancer activity against human MDA-MB-435 cells assessed as inhibition of cell growth incubated for 48 hrs by SRB assay; assay type: functional
[10] = target: T2, CYP1A1; assay: Inhibition of recombinant CYP1A1 (unknown origin) assessed as residual enzyme activity using 7-ethoxyresorufin as substrate at 50 uM incubated for 15 mins by resorufin dye based spectrofluorimetry (reference value: 100%); assay type: ADME; conditions: recombinant CYP1A1, probe 7-ethoxyresorufin, read-out: Activity
[11] = target: T2, CYP1A1; assay: Inhibition of recombinant CYP1A1 (unknown origin) assessed as residual enzyme activity using 7-ethoxyresorufin as substrate at 100 uM incubated for 15 mins by resorufin dye based spectrofluorimetry (reference value: 100%); assay type: ADME; conditions: recombinant CYP1A1, probe 7-ethoxyresorufin, read-out: Activity
[12] = target: T2, CYP1A1; assay: Inhibition of recombinant CYP1A1 (unknown origin) assessed as residual enzyme activity using 7-ethoxyresorufin as substrate at 0.1 uM incubated for 15 mins by resorufin dye based spectrofluorimetry (reference value: 100%); assay type: ADME; conditions: recombinant CYP1A1, probe 7-ethoxyresorufin, read-out: Activity
[13] = tested on: MDA-MB-468; assay: Anticancer activity against human MDA-MB-468 cells assessed as inhibition of cell growth incubated for 48 hrs by SRB assay; assay type: functional; conditions: for CC50: read-out: LC50 (the source's name)
[14] = tested on: MDA-MB-468; assay: Anticancer activity against human MDA-MB-468 cells assessed as cell growth at 1 uM incubated for 48 hrs by SRB assay; assay type: functional; conditions: read-out: Activity
[15] = tested on: MDA-MB-435; assay: Anticancer activity against human MDA-MB-435 cells assessed as cell growth at 0.1 uM incubated for 48 hrs by SRB assay; assay type: functional; conditions: read-out: Activity
[16] = tested on: MCF7; assay: Anticancer activity against human MCF7 cells assessed as cell growth at 10 uM incubated for 48 hrs by SRB assay; assay type: functional; conditions: read-out: Activity
[17] = tested on: MCF7; assay: Anticancer activity against human MCF7 cells assessed as cell growth at 1 uM incubated for 48 hrs by SRB assay; assay type: functional; conditions: read-out: Activity
[18] = tested on: MDA-MB-468; assay: Anticancer activity against human MDA-MB-468 cells assessed as cell growth at 10 uM incubated for 48 hrs by SRB assay; assay type: functional; conditions: read-out: Activity
[19] = tested on: MDA-MB-468; assay: Anticancer activity against human MDA-MB-468 cells assessed as cell growth at 0.1 uM incubated for 48 hrs by SRB assay; assay type: functional; conditions: read-out: Activity
[20] = target: T2, CYP1A1; assay: Inhibition of recombinant CYP1A1 (unknown origin) assessed as residual enzyme activity using 7-ethoxyresorufin as substrate at 0.01 uM incubated for 15 mins by resorufin dye based spectrofluorimetry (reference value: 100%); assay type: ADME; conditions: recombinant CYP1A1, probe 7-ethoxyresorufin, read-out: Activity
[21] = tested on: MDA-MB-435; assay: Anticancer activity against human MDA-MB-435 cells assessed as cell growth at 1 uM incubated for 48 hrs by SRB assay; assay type: functional; conditions: read-out: Activity
[22] = tested on: MDA-MB-468; assay: Anticancer activity against human MDA-MB-468 cells assessed as cell growth at 100 uM incubated for 48 hrs by SRB assay; assay type: functional; conditions: read-out: Activity
[23] = tested on: NCI-H226; assay: Anticancer activity against human NCI-H226 cells assessed as cell growth at 1 uM incubated for 48 hrs by SRB assay; assay type: functional; conditions: read-out: Activity
[24] = tested on: NCI-H226; assay: Anticancer activity against human NCI-H226 cells assessed as inhibition of cell growth incubated for 48 hrs by SRB assay; assay type: functional
[25] = tested on: MCF7; assay: Anticancer activity against human MCF7 cells assessed as cell growth at 100 uM incubated for 48 hrs by SRB assay; assay type: functional; conditions: read-out: Activity
[26] = tested on: MDA-MB-435; assay: Anticancer activity against human MDA-MB-435 cells assessed as cell growth at 100 uM incubated for 48 hrs by SRB assay; assay type: functional; conditions: read-out: Activity
[27] = target: T2, CYP1A1; assay: Inhibition of recombinant CYP1A1 (unknown origin) assessed as residual enzyme activity using 7-ethoxyresorufin as substrate at 1 uM incubated for 15 mins by resorufin dye based spectrofluorimetry (reference value: 100%); assay type: ADME; conditions: recombinant CYP1A1, probe 7-ethoxyresorufin, read-out: Activity
[28] = target: T2, CYP1A1; assay: Inhibition of recombinant CYP1A1 (unknown origin) assessed as residual enzyme activity using 7-ethoxyresorufin as substrate at 10 uM incubated for 15 mins by resorufin dye based spectrofluorimetry (reference value: 100%); assay type: ADME; conditions: recombinant CYP1A1, probe 7-ethoxyresorufin, read-out: Activity

| Compound | growth at 0.1 µM [1] [%] | IC50 [2] [µM] | growth at 100 µM [3] [%] | growth at 10 µM [4] [%] | growth at 0.1 µM [5] [%] | growth at 10 µM [7] [%] | GI50 [8] [µM] | TGI [8] [µM] | CC50 [8] [µM] | GI50 [9] [µM] | LC50 [9] [µM] | TGI [9] [µM] | activity at 0.25 h, 50 µM [10] [%] | activity at 0.25 h, 100 µM [11] [%] | activity at 0.25 h, 0.1 µM [12] [%] | GI50 [13] [µM] | TGI [13] [µM] | CC50 [13] [µM] | growth at 1 µM [14] [%] | growth at 0.1 µM [15] [%] | other results |
| --- | --- | --- | --- | --- | --- | --- | --- | --- | --- | --- | --- | --- | --- | --- | --- | --- | --- | --- | --- | --- | --- |
| Cc1cc(C)n2ncc(C(=O)NCc3ccc(Cl)cc3)c2n1 | 90.9 | 10 | 58.3 | 98.1 | 90.1 | 82.6 | 57.7 | > 100 | > 100 | > 100 | > 100 | > 100 | 64.7 | 50.8 | 89.8 | 58.5 | > 100 | > 100 | 82.6 | 100 | activity at 0.25 h, 5 µM [6]: 71.8%; growth at 10 µM [16]: 80.4%; growth at 1 µM [17]: 88.2%; growth at 10 µM [18]: 77.6%; growth at 0.1 µM [19]: 90.9%; activity at 0.25 h, 0.01 µM [20]: 98.7%; growth at 1 µM [21]: 99.9%; growth at 100 µM [22]: 23.6%; growth at 1 µM [23]: 87.8%; GI50 [24]: > 100 µM; LC50 (concentration killing 50% of cells) [24]: > 100 µM; TGI [24]: > 100 µM; growth at 100 µM [25]: 20.6%; growth at 100 µM [26]: 70% |
| Cc1sc2[nH]c(CNc3ccc(F)cc3)nc(=O)c2c1C | 91.4 | 0.7 | 51.9 | 94.6 | 96.5 | 77.9 | 65.8 | > 100 | > 100 | > 100 | > 100 | > 100 | 13.5 | 9.07 | 85.3 | > 100 | > 100 | > 100 | 95 | 99.9 | activity at 0.25 h, 5 µM [6]: 23.9%; growth at 10 µM [16]: 84.1%; growth at 1 µM [17]: 94%; growth at 10 µM [18]: 94.4%; growth at 0.1 µM [19]: 99.2%; activity at 0.25 h, 0.01 µM [20]: 91.7%; activity at 0.25 h, 1 µM [27]: 46%; growth at 1 µM [21]: 97.9%; growth at 100 µM [22]: 56.8%; growth at 1 µM [23]: 86.9%; GI50 [24]: > 100 µM; LC50 (concentration killing 50% of cells) [24]: > 100 µM; TGI [24]: > 100 µM; growth at 100 µM [25]: 26.3%; growth at 100 µM [26]: 83.5% |
| Nc1cc(-c2cc3cc(F)ccc3[nH]2)ccc1F | 97.7 | 0.3 | 30.2 | 17.7 | 68.2 | 63 | 69.5 | > 100 | > 100 | < 0.1 | > 100 | > 100 | 18.3 | 17.5 | 60.9 | 36.5 | 84.7 | > 100 | 96.4 | 29.5 | activity at 0.25 h, 5 µM [6]: 22.4%; growth at 10 µM [16]: 55%; growth at 1 µM [17]: 63.9%; growth at 10 µM [18]: 50%; growth at 0.1 µM [19]: 100%; activity at 0.25 h, 0.01 µM [20]: 76.5%; activity at 0.25 h, 1 µM [27]: 39.8%; growth at 1 µM [21]: 21.5%; growth at 100 µM [22]: -14.4%; growth at 1 µM [23]: 83.2%; GI50 [24]: 62.3 µM; LC50 (concentration killing 50% of cells) [24]: > 100 µM; TGI [24]: > 100 µM; growth at 100 µM [25]: 44.5%; growth at 100 µM [26]: 14.9% |
| Cc1cc(C)n(C(=O)CCn2nc(C)c(Cl)c2C)n1 | 80.4 | 10 | 55.6 | 100 | 85.9 | 71.4 | 54.8 | > 100 | > 100 | > 100 | > 100 | > 100 | 36.4 | 35.1 | 62.2 | > 100 | > 100 | > 100 | 100 | 100 | activity at 0.25 h, 10 µM [28]: 50.6%; growth at 10 µM [16]: 74%; growth at 1 µM [17]: 78.7%; growth at 10 µM [18]: 97.7%; growth at 0.1 µM [19]: 100%; activity at 0.25 h, 0.01 µM [20]: 79.9%; activity at 0.25 h, 1 µM [27]: 52.9%; growth at 1 µM [21]: 100%; growth at 100 µM [22]: 68.3%; growth at 1 µM [23]: 77.6%; GI50 [24]: > 100 µM; LC50 (concentration killing 50% of cells) [24]: > 100 µM; TGI [24]: > 100 µM; growth at 100 µM [25]: 22.9%; growth at 100 µM [26]: 84.9% |

Source: ChEMBL document CHEMBL5257023, “Identification of leads for antiproliferative activity on MDA-MB-435 human breast cancer cells through pharmacophore and CYP1A1-mediated metabolism” (Eur J Med Chem, 2016)
